Assay results from article PMC3293351, “Pharmacokinetics and Excretion Studies on CDRI-85/92, an Antiulcer Proton Pump Inhibitor” (Scientia Pharmaceutica, 2011).
Like-named read-outs stand apart in the source and are kept apart here.

Key:
[1] = Partition coefficient (log P), 1-octanol/phosphate buffer; type: physicochemical; details: 1-octanol/20 mM phosphate buffer; octanol partition, 20 mM phosphate buffer pH 7.4, 25°C
Experimental: Determination of log P was carried out according to the method of Said et al. (1996). 1-Octanol and 20 mM phosphate buffer (pH, 7.4) were mutually saturated for 6 h on magnetic stirrer and separated. A solution of the compound (1 mg/ml) was prepared in […]. Buffer (2 ml) and octanol containing CDRI-85/92 were placed in seven glass tubes and screw capped. These tubes were tumble-mixed for 2 h at 25°C at about 100 inversions/min. The organic and aqueous phases were separated by centrifugation at 2500 rev/min for 20 min. The concentration of the compound in aqueous and organic phase was determined by HPLC after a suitable dilution in mobile phase. The log P was calculated from the following equation:
Log P=logCoctanol/Cbuffer

[2] = log P from potentiometric titration; type: physicochemical; details: aqueous solution titrated with 0.1 M NaOH
Experimental: where Coctanol and Cbuffer are the concentrations of the compound in octanol and buffer, respectively. Further, log P values {[…]} were also calculated after conducting potentiometric titration. It was carried out manually using a pH electrode and a variable volume pipette. A solution of the compound (1 mg/ml) was prepared in water and it was titrated with a 0.1 M NaOH solution, pH was measured simultaneously. The equivalence point (pKa- partition coefficient) was estimated from the inflection point in the titration curve from the plot between pH and volume of mL of NaOH solution.

[3] = system: free acidity; details: compared with Omeprazole; cited from earlier work
[4] = system: glutathione-S-transferases; parameters: method as in PMID 15283303; details: formation of trans-isoform; cited from earlier work
[5] = parameters: method as in PMID 17045703; details: cited from earlier work
[6] = system: gastric proton pump; details: cited from earlier work
[7] = system: proton pumps of the kidney and bone; parameters: method as in PMID 17045703; details: cited from earlier work
[8] = cited from earlier work
[9] = parameters: method as in PMID 12711165; details: alike at acidic and basic pHs; cited from earlier work
[10] = method not specified; cited from earlier work
[11] = Pharmacokinetics in serum after 20 mg/kg oral and intravenous doses; type: in vivo, Sprague Dawley rats
Experimental: As the first step of experiment, an aqueous solution formulation of the compound was administered intravenously to conscious rats via the caudal vein at a dose of 20 mg/kg in a volume of approximately 1.0 ml/kg/rat. Before the experiment, the tail was cleaned with luke warm water and the caudal vein was dilated using xylene. Blood (approx. 1.2 ml) was collected by cardiac puncture under light ether anesthesia at 0.08, 0.25, 0.5, 1, 2, 3, 4, 5, 6, 8, 12, 24 and 48 h post dose. In the second study, conscious rats, fasted overnight, were fed orally at a dose of 20 mg/kg in a volume of 2.0 ml/kg/rat. After drug delivery, blood was collected at the same time points used in the intravenous study. Three rats were utilized for each time point and not more than three or four (later in case of 48 hr) blood samples from each rat, two of which were by intracardiac during the absorption-distribution phase (till 5 hr) and one from the venecava in the terminal phase (6 hr onwards), was withdrawn. Together in two sets of studies, there were 24 rats. (Pl refer to Sampling schedule: Table 1). The total volume of the blood withdrawn within 24 h from cardiac puncture was less than 10% of the total blood volume. Blood was allowed to clot in sealed glass tubes and centrifuged at 2000 rpm. The serum was separated and stored at −60°C until analyses.
Serum concentrations of the compound were determined by HPLC method as described by Srivastava & Gupta (2002) with minor modification. Briefly, to 0.5 ml serum (blank, spiked or test) in 10 ml test tube 1.5 ml of acetonitrile was added and vortex-mixed for 15 sec. The tubes were kept in fridge for 30 min for complete protein precipitation, vortex-mixed for 1 min and centrifuged at 1000 × g for 10 min at 4°C. Supernatant (1.5 ml) was transferred to a 10 ml conical tube without disturbing the lower precipitate pellet and evaporated to dryness in Savant speed vac concentrator. The residue was reconstituted in 0.1 ml of mobile phase, centrifuged at 1000 × g for 10 min and the resulting solution was injected onto the HPLC system.
After oral dose, serum peak concentration (Cmax) and the time to reach peak concentration (Tmax) were derived directly from the original data. The serum concentration-time data from intravenous and oral dosed rats were fitted to WinNonlin programme (version 1.5) to calculate various pharmacokinetic parameters (like AUC, Cl and Vd). The bioavailability for oral dose was calculated using the following equation:
%Bioavailability=AUCoral×Doseiv/AUCiv×Doseoral×100

[12] = Sprague Dawley, serum, rat, 20 mg/kg IV
[13] = Sprague Dawley, rat serum, 20 mg/kg oral

## O=C1NC(C(=O)O)/C(=C\Cc2ccccc2)O1 (centres unmarked) [CDRI-85/92, (5E)-2-oxo-5-(2-phenylethylidene)-1,3-oxazolidine-4-carboxylic acid]
[1]
  logP: 0.53 ± 0.11
[2]
  logP: 0.55 ± 0.18
[3]
  % inhibition in the free acidity: fairly compares with that of Omeprazole
[4]
  Metabolism by glutathione-S-transferases: very slow metabolism
[5]
  cytoprotective activity: good cytoprotective activity
[6]
  Inhibition of the gastric proton pump: selective and competitive inhibition
[7]
  Inhibition of proton pumps of the kidney and bone: not inhibiting
[8]
  aqueous solubility: > 500 µg/mL
[9]
  Ka (absorption rate constant): 0.12 h⁻¹
[10]
  log P: 0.5
[11]; Sprague Dawley, rat, serum, iv, 20 mg/kg, rat serum, 20 mg/kg IV, read-out: Cmax
  Cmax: 4910 ng/mL
[11]; Sprague Dawley, rat, serum, iv, 20 mg/kg, rat serum, 20 mg/kg IV, read-out: Elimination t1/2 (converted)
  half-life: 2 h
[11]; Sprague Dawley, rat, serum, po, 20 mg/kg, rat serum, 20 mg/kg oral, read-out: Cmax
  Cmax: 469 ± 45.5 ng/mL
[11]; [12]
  MRT: 1.1 h
  Vd: 3.7 L/kg
  clearance: 18.3 mL/min
[11]; Sprague Dawley, serum, rat, 20 mg/kg oral
  MRT: 3.9 h
[11]; Sprague Dawley, serum, rat, 20 mg/kg oral vs IV, based on AUC
  bioavailability: 70.5%
[11]; Sprague Dawley, rat serum, 20 mg/kg IV
  AUC(0-inf): 1250 ng·h/mL
[11]; [13]
  AUC(0-inf): 882 ng·h/mL
  Tmax: 1 h
[11]; rat serum, 20 mg/kg IV, 20 mg/kg
  Elimination t1/2: 2.1 h
[11]; rat serum, 20 mg/kg oral, 20 mg/kg
  Cmax: 469.2 ng/mL
[11]; rat, 20 mg/kg IV
  Time up to which detected in serum: up to 12 h
[11]; rat, 20 mg/kg oral, MRToral - MRTIV
  MAT (mean absorption time): 2.8 h
[11]; rat, post oral administration 20 mg/kg
  Earliest time detectable in serum: 5 min
